Data on 4 compounds can be found in US8598190B2, “3H-imidazo [4, 5-C] pyridine-6-carboxamides as anti-inflammatory agents” (Boehringer Ingelheim International GmbH, priority 2008, dated 2013).

In this assay the target is T1, recombinant human mPGES-1 (Homo sapiens, UniProt O14684).
T1 construct: made in house; host or cells: Rosetta E. coli (microsomal/membrane fraction)
T1 sequence (O14684 1-152): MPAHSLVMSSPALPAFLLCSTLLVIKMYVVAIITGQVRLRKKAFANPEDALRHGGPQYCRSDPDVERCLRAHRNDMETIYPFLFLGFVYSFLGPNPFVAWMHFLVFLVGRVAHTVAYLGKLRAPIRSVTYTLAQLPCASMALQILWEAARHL
The assay is described as follows: mPGES-1 inhibition test (microsomes, HTRF detection of PGE2). The class given is biochemical. As to the method:
Microsomes from Rosetta E. coli bacteria expressing recombinant human mPGES-1 is dissolved in 0.1 M KPi pH 7.4 buffer containing 2.5 mM GSH. 50 μl of the enzyme is subsequently dispensed in a 384-well plate. 0.5 μl of the inhibitor dissolved in DMSO at is thereafter added to each well and incubated for 25 minutes at room temperature.
Subsequently, 2 μl of PGH2 dissolved in an appropriate solvent is added to each well and after one minute the acidified stop solution containing FeCl2 is added. 4 μl of the total volume is transferred to a separate plate and diluted 750-fold in two separate steps before HTRF detection of PGE2.
The HTRf detection is performed by the use of a commercially available kit from CisBio essentially according to the manufacturer's protocol. Briefly, 10 μl of the diluted sample is transferred to a white 384-well plate. 5 μl of d2 and 5 μl Eu3+-Cryptate labeled anti-PGE2 is added to each well containing samples by the use of a Multidrop. The plate is covered with a plastic self-adhesive film, centrifuged at 1200 rpm for 1 minute and subsequently stored at +4° C. over night.
After over night incubation the fluorescence is measured by the use of an appropriate microplate reader. The fluorescence of europium cryptate, and d2 are measured using the following excitation and emission wavelength, europium cryptate: λmax^ex=307 nm, λmax^em=620 nm and d2: λmax^ex=620 nm, λmax^em=665 nm), respectively. The extent of the specific FRET is measured as a ratio of the emission intensity at 665 nm vs. that at 620 nm. A standard curve using synthetic PGE2 is used to quantify the amount of PGE2 in unknown samples.
On the technique in general: Time-resolved FRET reads energy transfer from a long-lived donor to a nearby acceptor.

The term inhibition denotes the relative decrease from the control value, in per cent. Regarding `O=C(NC1CCC2(CC1)CC2)c1cc2[nH]c(Nc3c(Cl)cccc3Cl)nc2cn1` [Example 451, 2-(2,6-Dichlorophenylamino)-N-(spiro[2.5]octan-6-yl)-1H-imidazo[4,5-c]pyridine-6-carboxamide], the inhibition at 10 µM was determined as 99%.
Turning to `O=C(Nc1cc(C(F)(F)F)cc(C2CC2)n1)c1cc2[nH]c(Nc3c(Cl)cncc3Cl)nc2cn1` [Example 740, 2-(3,5-Dichloro-pyridin-4-yl-amino)-N-(6-cyclopropyl-4-trifluoromethyl-pyridin-2-yl)-1H-imidazo[4,5-c]pyridine-6-carboxamide], the inhibition at 10 µM is 100%.
Take `Cc1cnc(NC(=O)c2cc3[nH]c(Nc4c(Cl)cncc4Cl)nc3cn2)cc1C1CC1` [Example 735, 2-(3,5-Dichloro-pyridin-4-yl-amino)-N-(4-cyclopropyl-5-methyl-pyridin-2-yl)-1H-imidazo[4,5-c]pyridine-6-carboxamide]: the inhibition at 10 µM is 99%.
For the compound `O=C(Nc1cc(C(F)(F)F)ccn1)c1cc2[nH]c(Nc3c(Cl)cncc3Cl)nc2cn1` [Example 366, 2-(3,5-Dichloropyridin-4-ylamino)-N-(4-trifluoromethyl-pyridin-2-yl)-1H-imidazo[4,5-c]pyridine-6-carboxamide], the inhibition at 10 µM is 100%.
